“Also recorded” adds a separate entry of the source.
Legend:
sAPP secretion = sAPP secretion / alpha-secretase APP processing; type: cell-based; details: 0.1 nM bryostatin-1
Hermissenda Crassicornis = test: Pavlovian conditioning of Hermissenda (retention of conditioned response); type: in vivo; details: for concentration that inhibited acquisition and behavioral retention: all training conditions tested
Description: Bryostatin exposure—Specimens of Hermissenda Crassicornis were maintained in artificial sea water (ASW) at 15° for three days in perforated 50-ml conical centrifuge tubes before starting experiments. Bryostatin, purified from the marine bryozoan Bugula neritina, was dissolved in EtOH and diluted to its final concentration in ASW. […] For selected experiments lactacysteine (10 μM) or anisomycin was added to the ASW.
Bryostatin effects on Hermissenda behavior and biochemistry were produced by adding the drug to the bathing medium within an 8 cm long, 1 cm diameter test tube housing each individual animal.
Pavlovian conditioning of Hermissenda involves repeated pairings of a neutral stimulus, light, with an unconditioned stimulus, orbital shaking. (See, Lederhendler et al. (24) and Epstein et al. (6)). A rotation/shaking stimulus excites the statocyst hair cells and thereby elicits an unconditioned response: a brisk contraction of the muscular undersurface called a foot, accompanied by adherence or “clinging” to the surface that supports the foot. Before conditioning, light elicits a weakly positive phototaxis accompanied by lengthening of the foot. After sufficient light-rotation pairings, light no longer elicits phototaxis, but instead elicits a new response (24): the “clinging” and foot shortening previously elicited only by the unconditional stimulus (FIG. 1). Thus, the meaning of the unconditioned stimulus, rotation or orbital shaking, has been transferred to the conditioned stimulus and is manifested by a light-elicited foot contraction—a negative change of foot length. This conditioned response to light can last for weeks, is not produced by randomized light and rotation, is stimulus-specific, and shares the other defining characteristics of mammalian Pavlovian Conditioning.
Pavlovian conditioning of Hermissenda has well-defined training parameters that produce progressively longer-lasting retention of the learned conditioned response. Two training events (2 TE) of paired light and orbital shaking (see “Methods”), for example, induce a learned conditioned response (light-elicited foot contraction or shortening) that persists without drug treatment for approximately 7 minutes. Four to six training events (4-6 TE) induce a conditioned response that persists up to several hours, but disappears approximately by 1 day after training. Nine TE produces long-term associative memory lasting many days and often up to two weeks.

## CCC/C=C/C=C/C(=O)O[C@H]1/C(=C/C(=O)OC)C[C@H]2C[C@H]([C@@H](C)O)OC(=O)C[C@H](O)C[C@@H]3C[C@H](OC(C)=O)C(C)(C)[C@](O)(C[C@@H]4C/C(=C/C(=O)OC)C[C@H](/C=C/C(C)(C)[C@]1(O)O2)O4)O3 [bryostatin, bryostatin-1]
sAPP secretion
  sAPP secretion: dramatic increase of sAPP secretion
Hermissenda Crassicornis; 2-TEs with two bryostatin exposures
  retention: more than one week
Hermissenda Crassicornis; 2-paired TEs, bryostatin 0.25 ng/ml from 10-min dark adaptation and 4 h thereafter
  retention of behavioral conditioning tested after 4 h: demonstrated retention of the behavioral conditioning
Hermissenda Crassicornis; 2 TE plus bryostatin, 4 hours during and after training
  memory retention: lasting hours; also recorded: several hours
Hermissenda Crassicornis; 4 TEs plus bryostatin
  memory retention: > 24 h
Hermissenda Crassicornis; 6 TE with bryostatin (only hours without)
  memory duration: many days
Hermissenda Crassicornis; 4 hour bryostatin on the day preceding training and on the day of 2 TE
  memory retention: more than one day
Hermissenda Crassicornis; 20 h pre-exposure to bryostatin 0.25 ng/ml, 4-paired TE
  retention: persisted
Hermissenda Crassicornis; 20 hr bryostatin 0.25 ng/ml exposure, 2-paired TE
  retention: ≤ 48 h
Hermissenda Crassicornis; after 2, 4, or 6 training trials
  low doses that markedly enhanced memory: 0.1 to 0.25 ng/mL
Hermissenda Crassicornis
  concentration that inhibited acquisition and behavioral retention: greater than 1.0 ng/ml
Hermissenda Crassicornis; listed as Bryostatin
  concentration that inhibited acquisition and behavioral retention: ≥ 1.0 ng/mL
Hermissenda Crassicornis; bryostatin 0.25 ng/ml before 6-TE conditioning and 4 hours thereafter
  conditioned response (foot contraction) tested at 4 h: produced a positive CR
Hermissenda Crassicornis; bryostatin <0.50 ng/ml, 9-paired TEs
  effect on retention performance: no demonstrable effects on retention performance
Hermissenda Crassicornis; bryostatin exposure for 8 to 20 hours followed by 2 TE
  memory retention versus 4 hour exposures: not sufficient
Hermissenda Crassicornis; bryostatin only 4 h, 2-paired TEs 24 hrs later
  behavioral retention lost after: ≤ 24 h
Hermissenda Crassicornis; randomized presentations of light and rotation, with bryostatin
  conditioned response: produced no conditioned response
Hermissenda Crassicornis; sub-optimal 4- and 6-paired TEs, bryostatin 0.25 ng/ml from dark adaptation and for 4 hours
  long-term retention (tested with CS alone at 4 h, then 24-h intervals): all demonstrated long-term retention
Hermissenda Crassicornis; sub-optimal (4 TE) training
  concentrations that augment acquisition and memory retention: < 0.50 ng/mL
Hermissenda Crassicornis; three successive days of 4-h bryostatin 0.25 ng/ml, one day later 2-TEs
  long-term retention (LTR) post-training: ≥ 96 h
Hermissenda Crassicornis; two successive days of 4-h bryostatin 0.25 ng/ml, 2-paired TEs
  long-term retention: at least 6 days

From US8703812B2, “Protein synthesis required for long-term memory is induced by PKC activation on days preceding associative learning” (Blanchette Rockefeller Neurosciences Institute, priority 2005, dated 2014)
